Assay results published in patent US20030198674A1, “Controlled release pharmaceutical dosage forms of a cholesteryl ester transfer protein inhibitor” (priority 2002, published 2003).
≈ marks a conversion by molar mass, not a printed value. Like-named read-outs stand apart in the source and are kept apart here.

Legend:
[1] = Plasma half-life of Drug A; type: in vivo
[2] = Single-dose plasma Drug A concentration vs. time curve fitted to 2-compartment PK model; type: in vivo, Human
Procedure: Pharmacokinetic (PK) constants were derived by fitting this curve to a 2-compartment PK model, assuming a small intestinal transit time of 4 hr, and a gastric emptying time of 15 min.

[3] = Aqueous solubility of Drug A; type: physicochemical
[4] = 120 mg Drug A, fitted 2-compartment model

- half-life ([1]; read-out: additional long terminal elimination half-life): 100 to 200 h
- half-life ([1]; read-out: effective plasma terminal half-life (t1/2)): 30 to 70 h
- Absorption Ka [2, 4]: 2.27 h⁻¹
- K12 [2, 4]: 0.017 h⁻¹
- K21 [2, 4]: 0.002 h⁻¹
- Kel (Elimination Rate Constant) ([2]; calculated from Cl/Vd): 0.042 h⁻¹
- clearance ([2]; human, plasma, oral, 120 mg, read-out: Clearance (Cl) (converted)): 218 mL/min
- Vd ([2]; human, plasma, oral, 120 mg, read-out: Volume of distribution (Vd)): 174 L
- aqueous solubility [3]: about 0.04 microgm/ml
- solubility ([3]; water (aqueous), accurate measurements, crystalline): ~0.01 µg/mL (≈ 0.0167 µM)
- solubility ([3]; water, read-out: solubility in water): < 1 µg/mL
SMILES: CCOC(=O)N1c2ccc(C(F)(F)F)cc2[C@@H](N(Cc2cc(C(F)(F)F)cc(C(F)(F)F)c2)C(=O)OC)C[C@H]1CC [Drug A, [2R,4S] 4-[(3,5-bis-trifluoromethyl-benzyl)-methoxycarbonyl-amino]-2-ethyl-6-trifluoromethyl-3,4-dihydro-2H-quinoline-1-carboxylic acid ethyl ester]
